The numbers were not newly measured in patent publication US20160281133A1, “STABILIZATION AND ISOLATION OF EXTRACELLULAR NUCLEIC ACIDS” (QIAGEN GMBH, priority 2013, published 2016), which cites them from elsewhere.

pIC50, pKi: −log10 of the molar value. Like-named read-outs stand apart in the source and are kept apart here. Where a SMILES comes first, the peptide text is derived from it. [ ]: non-standard residue; d: D form. Nle = CCCC[CH](N)C(=O)O

One data set has as its target COX-1 (Homo sapiens, UniProt P23219). The settings on record: cited from earlier work.
Another data set deals with COX-2. The conditions noted are these: cited from earlier work.
The next data set has as its target calpain I (Homo sapiens, UniProt P07384). The conditions noted are these: cited from earlier work.
The target in a further data set is T1, calpain II (Homo sapiens, UniProt P17655).
T1 sequence (P17655 1-700): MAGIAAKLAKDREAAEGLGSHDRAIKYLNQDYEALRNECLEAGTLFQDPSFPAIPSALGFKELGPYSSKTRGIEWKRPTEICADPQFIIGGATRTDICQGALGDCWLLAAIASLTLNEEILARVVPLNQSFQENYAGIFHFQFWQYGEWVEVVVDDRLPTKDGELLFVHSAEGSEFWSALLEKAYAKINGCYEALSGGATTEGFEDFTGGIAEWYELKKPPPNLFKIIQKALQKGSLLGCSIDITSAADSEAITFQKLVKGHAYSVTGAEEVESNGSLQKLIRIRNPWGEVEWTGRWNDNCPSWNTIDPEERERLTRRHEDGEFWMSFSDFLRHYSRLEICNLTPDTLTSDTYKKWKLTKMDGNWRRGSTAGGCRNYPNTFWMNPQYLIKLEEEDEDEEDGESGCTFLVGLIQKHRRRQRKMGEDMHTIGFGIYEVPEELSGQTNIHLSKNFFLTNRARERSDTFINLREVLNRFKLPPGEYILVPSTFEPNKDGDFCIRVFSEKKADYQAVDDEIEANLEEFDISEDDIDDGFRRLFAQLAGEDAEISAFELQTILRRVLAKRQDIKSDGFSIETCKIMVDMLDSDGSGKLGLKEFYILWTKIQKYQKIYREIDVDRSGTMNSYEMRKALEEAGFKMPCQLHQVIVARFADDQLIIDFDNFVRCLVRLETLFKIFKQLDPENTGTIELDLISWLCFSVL
T1 sequence (P04632 1-268 partner): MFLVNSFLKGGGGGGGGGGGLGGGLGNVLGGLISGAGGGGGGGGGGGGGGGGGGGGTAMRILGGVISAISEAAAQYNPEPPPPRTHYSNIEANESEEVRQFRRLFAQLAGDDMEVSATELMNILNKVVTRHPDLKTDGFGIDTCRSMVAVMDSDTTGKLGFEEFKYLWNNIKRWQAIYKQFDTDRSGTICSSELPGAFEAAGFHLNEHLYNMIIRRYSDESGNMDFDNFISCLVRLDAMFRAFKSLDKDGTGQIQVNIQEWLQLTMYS
The conditions noted are these: cited from earlier work.

The next data set deals with cathepsin L (Homo sapiens, UniProt P07711). The settings on record: cited from earlier work.
For another data set, the target named is caspase-8 (Homo sapiens, UniProt Q14790). The conditions noted are these: cited from earlier work.
The target in a further data set is anthrax lethal factor (Bacillus anthracis, UniProt P15917). The settings on record: cited from earlier work.
Data set [1] deals with T2, caspase-1 (Homo sapiens, UniProt P29466).
T2 sequence (P29466 120-297 limits assumed): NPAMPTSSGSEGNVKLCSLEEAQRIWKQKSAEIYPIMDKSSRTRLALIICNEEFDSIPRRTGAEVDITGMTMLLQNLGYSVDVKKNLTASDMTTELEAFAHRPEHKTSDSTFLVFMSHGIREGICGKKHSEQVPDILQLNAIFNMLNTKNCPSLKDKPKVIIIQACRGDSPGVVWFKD
T2 sequence (P29466 317-404 limits assumed): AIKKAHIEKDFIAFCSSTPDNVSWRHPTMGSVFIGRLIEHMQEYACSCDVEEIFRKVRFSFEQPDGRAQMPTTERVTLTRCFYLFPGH
The settings on record: cited from earlier work.

The next data set deals with Bax-mediated apoptosis. The conditions noted are these: functions as effectively as Caspase Inhibitor VI (Z-VAD-FMK); cited from earlier work.
A further data set deals with myocardial infarct size. The settings on record: during reperfusion; cited from earlier work.
The test system of the next data set is PI3K. The conditions noted are these: cited from earlier work.
The test system of the next data set is LDH % release. The settings on record: cited from earlier work.
For data set [2], the system named is TNF-induced PMN-EC adhesion. The settings on record: cited from earlier work.
Data set [3] deals with TNF-induced inhibition of DNA synthesis. The conditions noted are these: cited from earlier work.
A further data set concerns proliferation. The settings on record: cited from earlier work.
The next data set relates to PKC. The settings on record: cited from earlier work.
The next data set concerns the target T3, caspase-3 (Homo sapiens, UniProt P42574).
T3 sequence (P42574 29-175 limits assumed): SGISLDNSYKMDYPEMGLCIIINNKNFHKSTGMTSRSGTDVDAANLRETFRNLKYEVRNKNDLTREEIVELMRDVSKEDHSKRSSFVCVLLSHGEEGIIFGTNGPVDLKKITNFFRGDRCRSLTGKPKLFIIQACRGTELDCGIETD
T3 sequence (P42574 176-277 limits assumed): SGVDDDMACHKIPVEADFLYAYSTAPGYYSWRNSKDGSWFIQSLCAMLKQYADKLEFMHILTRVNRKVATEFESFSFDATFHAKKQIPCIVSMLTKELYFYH
The settings on record: cited from earlier work.

The next data set has as its target T4, caspase-7 (Homo sapiens, UniProt P55210).
T4 sequence (P55210 24-198 limits assumed): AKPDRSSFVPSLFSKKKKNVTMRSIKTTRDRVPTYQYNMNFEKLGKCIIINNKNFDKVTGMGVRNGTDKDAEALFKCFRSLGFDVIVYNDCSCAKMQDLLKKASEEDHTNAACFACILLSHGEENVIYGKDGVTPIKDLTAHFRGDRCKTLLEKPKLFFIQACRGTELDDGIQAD
T4 sequence (P55210 207-303 limits assumed): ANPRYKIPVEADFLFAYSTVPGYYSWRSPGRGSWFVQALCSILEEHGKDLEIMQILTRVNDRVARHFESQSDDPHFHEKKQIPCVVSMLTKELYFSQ
The conditions noted are these: cited from earlier work.

The target of a further data set is T5, caspase-2 (Homo sapiens, UniProt P42575).
T5 sequence (P42575 170-325 limits assumed): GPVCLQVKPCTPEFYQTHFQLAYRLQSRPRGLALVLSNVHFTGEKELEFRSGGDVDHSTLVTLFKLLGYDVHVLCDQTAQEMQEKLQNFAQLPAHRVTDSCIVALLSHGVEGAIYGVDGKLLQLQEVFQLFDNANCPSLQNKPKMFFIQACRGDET
T5 sequence (P42575 348-452 limits assumed): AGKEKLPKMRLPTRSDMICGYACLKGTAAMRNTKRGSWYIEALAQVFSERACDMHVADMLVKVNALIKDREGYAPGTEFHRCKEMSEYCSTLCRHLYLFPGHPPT
The settings on record: cited from earlier work.

Data set [4] has as its target T2, caspase-1. The settings on record: cited from earlier work. This is another data set of the same source.
The target of a further data set is T6, caspase-10 (Homo sapiens, UniProt Q92851).
T6 sequence (Q92851 220-415 limits assumed): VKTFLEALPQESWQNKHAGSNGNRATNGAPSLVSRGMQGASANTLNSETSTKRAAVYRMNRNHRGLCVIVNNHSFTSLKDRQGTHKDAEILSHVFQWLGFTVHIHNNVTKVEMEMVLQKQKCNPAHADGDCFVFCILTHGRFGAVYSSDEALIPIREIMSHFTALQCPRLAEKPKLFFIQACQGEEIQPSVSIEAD
T6 sequence (Q92851 416-521 limits assumed): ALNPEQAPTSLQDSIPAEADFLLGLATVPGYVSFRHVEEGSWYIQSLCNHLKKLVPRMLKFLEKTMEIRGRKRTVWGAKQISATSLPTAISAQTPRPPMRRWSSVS
The settings on record: value type not repeated in the cell; cited from earlier work.

A further data set has as its system pancreatic duct cells. The conditions noted are these: cited from earlier work.
Data set [5] concerns etoposide-induced cortical neuron death. The settings on record: cited from earlier work.
The conditions of data set [6]: in neuron culture medium at 37° C.; cited from earlier work.
For another data set, the target named is Stat3 (Homo sapiens, UniProt P40763). The settings on record: read-out: DB50 (concentration of peptide at which DNA-binding activity is inhibited by 50%); cited from earlier work.
The target of data set [7] is N-SMase (neutral sphingomyelinase). The settings on record: rat brain; cited from earlier work.
In another data set the test system is MCF7 breast cancer cells. The settings on record: at 20 μM; cited from earlier work.
In data set [8] the target is T7, Omi/HtrA2 (His-Omi134-458) (Homo sapiens, UniProt O43464).
T7 construct: His-Omi134-458; His (N)
The settings on record: for His-Omi134-458; cited from earlier work.

For data set [9], the system named is various other serine proteases. The conditions noted are these: cited from earlier work.

Chain of Stat3 (P40763 whole entry, species assumed): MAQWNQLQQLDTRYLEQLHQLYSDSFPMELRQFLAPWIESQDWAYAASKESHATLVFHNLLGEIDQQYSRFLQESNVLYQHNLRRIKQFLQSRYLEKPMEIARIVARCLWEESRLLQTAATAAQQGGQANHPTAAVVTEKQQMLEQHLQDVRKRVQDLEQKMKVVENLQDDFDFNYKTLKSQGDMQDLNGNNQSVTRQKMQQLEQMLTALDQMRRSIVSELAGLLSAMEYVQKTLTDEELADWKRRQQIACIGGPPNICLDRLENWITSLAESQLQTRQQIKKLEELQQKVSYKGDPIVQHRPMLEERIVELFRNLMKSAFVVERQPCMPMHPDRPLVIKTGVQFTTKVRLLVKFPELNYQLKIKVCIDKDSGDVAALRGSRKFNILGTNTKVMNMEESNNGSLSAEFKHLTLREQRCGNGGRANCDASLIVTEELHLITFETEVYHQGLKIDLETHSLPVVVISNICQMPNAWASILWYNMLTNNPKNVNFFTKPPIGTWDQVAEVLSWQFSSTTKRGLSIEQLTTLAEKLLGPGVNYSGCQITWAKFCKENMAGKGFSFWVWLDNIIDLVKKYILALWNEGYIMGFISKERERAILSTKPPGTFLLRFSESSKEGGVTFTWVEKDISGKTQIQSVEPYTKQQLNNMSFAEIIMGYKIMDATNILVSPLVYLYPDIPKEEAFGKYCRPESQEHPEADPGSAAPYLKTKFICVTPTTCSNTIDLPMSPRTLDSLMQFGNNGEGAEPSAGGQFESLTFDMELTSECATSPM
Chain of cathepsin L (P07711 114-333, species assumed): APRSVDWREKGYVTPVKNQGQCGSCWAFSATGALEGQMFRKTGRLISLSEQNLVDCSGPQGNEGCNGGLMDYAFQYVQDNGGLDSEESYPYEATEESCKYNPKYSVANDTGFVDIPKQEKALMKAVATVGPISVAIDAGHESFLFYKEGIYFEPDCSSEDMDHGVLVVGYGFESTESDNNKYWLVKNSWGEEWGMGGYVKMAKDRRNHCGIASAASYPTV
Chain of anthrax lethal factor (P15917 34-809 limits assumed): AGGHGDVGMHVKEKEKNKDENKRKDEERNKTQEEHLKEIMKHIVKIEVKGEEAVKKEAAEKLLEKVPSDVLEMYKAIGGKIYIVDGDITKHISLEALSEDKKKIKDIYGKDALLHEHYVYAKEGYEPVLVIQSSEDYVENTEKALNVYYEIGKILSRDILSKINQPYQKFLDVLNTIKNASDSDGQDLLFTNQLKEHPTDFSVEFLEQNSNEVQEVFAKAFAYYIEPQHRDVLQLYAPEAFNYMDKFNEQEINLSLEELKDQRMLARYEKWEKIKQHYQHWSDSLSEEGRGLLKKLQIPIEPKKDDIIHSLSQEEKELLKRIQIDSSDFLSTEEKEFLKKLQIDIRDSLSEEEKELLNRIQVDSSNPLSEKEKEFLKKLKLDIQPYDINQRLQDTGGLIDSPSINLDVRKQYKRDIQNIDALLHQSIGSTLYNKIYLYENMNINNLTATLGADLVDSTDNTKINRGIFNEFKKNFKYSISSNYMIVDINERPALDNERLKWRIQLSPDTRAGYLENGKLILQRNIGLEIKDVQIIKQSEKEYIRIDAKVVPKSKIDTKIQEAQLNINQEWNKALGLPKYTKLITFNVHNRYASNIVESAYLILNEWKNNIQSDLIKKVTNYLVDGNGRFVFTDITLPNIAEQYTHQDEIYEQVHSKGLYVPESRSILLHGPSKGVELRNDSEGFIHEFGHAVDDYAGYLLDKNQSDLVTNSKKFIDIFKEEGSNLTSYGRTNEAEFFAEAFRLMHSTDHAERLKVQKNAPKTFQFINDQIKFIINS
Chain of COX-1 (P23219 24-599): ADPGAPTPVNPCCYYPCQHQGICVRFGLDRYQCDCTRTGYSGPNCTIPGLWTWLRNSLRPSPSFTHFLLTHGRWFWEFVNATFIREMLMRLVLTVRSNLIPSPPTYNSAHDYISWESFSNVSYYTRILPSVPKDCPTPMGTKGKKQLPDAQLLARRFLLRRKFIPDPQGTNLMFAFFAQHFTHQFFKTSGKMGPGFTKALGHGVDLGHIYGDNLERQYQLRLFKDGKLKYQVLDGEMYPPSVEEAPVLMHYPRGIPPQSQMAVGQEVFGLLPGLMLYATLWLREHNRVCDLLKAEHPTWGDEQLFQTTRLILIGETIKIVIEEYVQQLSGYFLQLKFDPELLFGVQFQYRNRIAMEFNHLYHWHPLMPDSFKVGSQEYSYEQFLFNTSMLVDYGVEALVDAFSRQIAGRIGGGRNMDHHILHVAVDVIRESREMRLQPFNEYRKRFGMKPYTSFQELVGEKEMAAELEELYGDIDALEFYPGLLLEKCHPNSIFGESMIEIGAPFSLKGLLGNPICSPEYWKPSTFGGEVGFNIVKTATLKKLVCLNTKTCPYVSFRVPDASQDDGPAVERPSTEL
T7 sequence (O43464 134-458): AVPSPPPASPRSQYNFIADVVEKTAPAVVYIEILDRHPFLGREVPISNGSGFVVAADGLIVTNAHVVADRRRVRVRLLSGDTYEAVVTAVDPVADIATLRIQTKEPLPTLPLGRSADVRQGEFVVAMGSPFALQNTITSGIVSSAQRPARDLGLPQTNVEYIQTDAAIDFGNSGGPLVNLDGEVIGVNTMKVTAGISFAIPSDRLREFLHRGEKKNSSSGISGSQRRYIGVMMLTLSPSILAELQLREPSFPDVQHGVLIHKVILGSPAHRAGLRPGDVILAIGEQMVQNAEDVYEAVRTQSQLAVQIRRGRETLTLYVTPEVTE
Chain of calpain I (P07384 whole entry, one chain of several): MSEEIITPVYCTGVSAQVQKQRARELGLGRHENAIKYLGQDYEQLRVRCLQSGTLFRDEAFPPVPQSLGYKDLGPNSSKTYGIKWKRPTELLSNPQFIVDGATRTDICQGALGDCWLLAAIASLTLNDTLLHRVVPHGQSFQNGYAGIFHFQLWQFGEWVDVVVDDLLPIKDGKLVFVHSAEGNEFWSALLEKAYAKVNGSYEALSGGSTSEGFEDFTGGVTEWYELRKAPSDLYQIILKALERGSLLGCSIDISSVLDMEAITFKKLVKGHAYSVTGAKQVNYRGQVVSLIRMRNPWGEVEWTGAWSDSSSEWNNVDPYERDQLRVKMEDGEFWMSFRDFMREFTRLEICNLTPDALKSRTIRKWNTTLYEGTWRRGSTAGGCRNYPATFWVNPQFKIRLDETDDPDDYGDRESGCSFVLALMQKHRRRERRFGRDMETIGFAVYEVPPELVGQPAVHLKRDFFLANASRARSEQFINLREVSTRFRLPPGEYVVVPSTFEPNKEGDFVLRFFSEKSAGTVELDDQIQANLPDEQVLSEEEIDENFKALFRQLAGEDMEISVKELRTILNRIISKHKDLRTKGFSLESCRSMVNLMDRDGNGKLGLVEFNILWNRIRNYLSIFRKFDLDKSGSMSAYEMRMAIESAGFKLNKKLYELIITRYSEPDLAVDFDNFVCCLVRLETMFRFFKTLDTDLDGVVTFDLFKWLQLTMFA
Chain of caspase-8 (Q14790 217-374 limits assumed, species assumed): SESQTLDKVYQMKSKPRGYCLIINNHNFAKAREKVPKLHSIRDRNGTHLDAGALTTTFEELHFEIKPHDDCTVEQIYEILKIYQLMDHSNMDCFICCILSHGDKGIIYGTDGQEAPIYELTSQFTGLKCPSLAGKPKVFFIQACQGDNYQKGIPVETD
Chain of caspase-8 (Q14790 385-479 limits assumed, species assumed): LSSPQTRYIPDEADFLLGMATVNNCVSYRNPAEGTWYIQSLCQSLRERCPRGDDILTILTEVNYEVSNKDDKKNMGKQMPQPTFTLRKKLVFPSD

As to `O=c1c(O)c(-c2ccc(O)cc2)oc2cc(O)cc(O)c12` [Kaempferol], the pIC50 at COX-1 was 3.74; with COX-2, above 4.82.
On to `CCCCC(C=O)NC(=O)C(CC(C)C)NC(=O)C(CC(C)C)NC(C)=O` (stereo not drawn) [Ac-Leu-Leu-Nle-al] (Ac-Leu-Leu-[Nle]-aldehyde; configuration not given here), for which the pKi is 6.72 at calpain I, 6.82 on calpain II and 9.30 on cathepsin L.
As to `FC(F)(F)c1cccc(-c2csc(C3COc4ccccc4O3)n2)c1` (stereo not drawn) [Caspase Inhibitor X], at caspase-8, the pKi was 5.57. Also, on anthrax lethal factor, the “effect on activity of anthrax lethal factor” value was “assisted cleavage of BID, a proapoptotic protein. Weakly affects”.
As for “Ac-Tyr-Val-Ala-Asp-CHO [Caspase-1 Inhibitor I]”, the pKi with caspase-1 [1] was 9.70.
With “H-Val-Pro-Met-Leu-Lys-OH (H-VPMLK-OH) [Bax-Inhibiting Peptide, V5]”, in the data set with Bax-mediated apoptosis, the “concentration effective for Bax-mediated apoptosis” value is reported as “mediated apoptosis (~50-200 μM). Also effectively blocks caspase-”.
As to “Ac-Leu-Glu-His-Asp-CMK (LEHD; HELM PEPTIDE1{[ac].L.E.H.D.[ClC[*:1]]}$$$$V2.0; SMILES CC(=O)N[C@@H](CC(C)C)C(=O)N[C@@H](CCC(=O)O)C(=O)N[C@@H](Cc1c[nH]cn1)C(=O)N[C@@H](CC(=O)O)C(=O)CCl) [Caspase-9 Inhibitor III]”, the “concentration reported to reduce myocardial infarct size” value in the data set with myocardial infarct size was “myocardial infarct size during reperfusion (~70 nM)”.
As for `O=c1c(O)c(-c2ccc(O)c(O)c2)oc2cc(O)cc(O)c12` [Quercetin(Sophoretin), Quercetin], the pIC50 was 5.42 with PI3K; 6.10 with LDH % release; 4.78 in [2]; 5.21 in data set [3]; 4.94 with proliferation. In the data set with PKC, the IC50 was 15 μg/ml. It strongly abrogated PI3K and Src kinases, mildly.
With “Ac-Val-Asp-Val-Ala-Asp-CHO (Ac-VDVAD-aldehyde) [Caspase Inhibitor VIII]”, the negative-log Ki (pKi) with caspase-3 was 9.00; with caspase-7, 8.12; in the data set with caspase-2 it was 8.46.
“Ac-Ile-Glu-Thr-Asp-CHO (Ac-IETD-aldehyde) [Granzyme B Inhibitor II]”: the pKi with caspase-1 [4] is above 8.22; with caspase-10 it was 7.57.
`CCN1C(=O)C=CC1=O` [N-Ethylmaleimide]: in the data set with pancreatic duct cells, the pIC50 is 4.66.
Consider `O=[N+]([O-])c1ccc(-c2cn3c4c(sc3n2)CCCC4)cc1` [Pifithrin-α, p-Nitro, Cyclic], for which, in data set [5], the “higher potency than Pifithrin-α” value is reported as “A cell-permeable p53 inhibitor that exhibits 10-fold higher potency”. In addition, in [6], the “longer half-life than Pifithrin-α” value is 50% and the t½ is given as 6 h.
For the compound “Ac-Pro-Tyr(PO3H2)-Leu-Lys-Thr-Lys-OH (PYLKTK; HELM PEPTIDE1{[ac].P.[O=C([C@H](Cc1ccc(OP(=O)(O)O)cc1)N[*:1])[*:2]].L.K.T.K}$$$$V2.0; SMILES CC(=O)N1CCC[C@H]1C(=O)N[C@@H](Cc1ccc(OP(=O)(O)O)cc1)C(=O)N[C@@H](CC(C)C)C(=O)N[C@@H](CCCCN)C(=O)N[C@H](C(=O)N[C@@H](CCCCN)C(=O)O)[C@@H](C)O) [STAT3 Inhibitor Peptide]”, the pIC50 with Stat3 was 3.63.
As for `O=C(C=Cc1ccc(C=CC(=O)Nc2ccc(C3=NCCN3)cc2)cc1)Nc1ccc(C2=NCCN2)cc1` [GW 4869], the pIC50 in [7] is around 6.00. In addition, in the data set with MCF7 breast cancer cells, the “protection against TNF-α or diamine-induced cell death” value is given as “specific PLC. Reported to offer complete protection against TNF-α”.
In the case of `O=C1C(=Cc2ccc(-c3ccccc3[N+](=O)[O-])o2)C(=O)N(c2ccccc2)C(=S)N1c1ccccc1` [Omi/HtrA2 Protease Inhibitor, Ucf-101], the pIC50 was 5.02 in data set [8] and at most 3.70 in data set [9].
